The values that follow come from PMC4410478, “Larvicidal activity and possible mode of action of four flavonoids and two fatty acids identified in Millettia pinnata seed toward three mosquito species” (Parasites & Vectors, 2015).

Values after ≈ are worked out from the molar mass of the structure shown. Like-named read-outs stand apart in the source and are kept apart here.

Data set [1] deals with different mosquito species larvae. The settings on record: cited from earlier work.
In data set [2] the test system is octopamine sensitive adenylate cyclase, whole body homogenate from third instar A. aegypti larvae. Description: Determination of cyclic AMP level (octopamine sensitive adenylate cyclase activity). The settings on record: 100 μM test compound; octopamine 100 μM alone as comparator. Type of data set: biochemical, Aedes aegypti. Here is the method: The in vitro octopamine sensitive adenylate cyclase activity was investigated according to the modified method of Pratt and Pryor [35]. The whole bodies of 75 third instar A. aegypti larvae (106.2 mg) were homogenized in 500 μL of 2 mM Tris-maleate buffer (pH 7.4) containing 0.8 mM ethylene glycol tetraacetic acid (EGTA). Adenylate cyclase activity was measured using a cAMP Biotrak Enzyme immunoassay system according to the manufacturer’s instructions. The assay was conducted in a total volume of 100 μL containing 80 mM Tris-maleate buffer, 5 mM theophylline (to inhibit phosphodiesterase activity), 2 mM MgSO4, 0.5 mM adenosine triphosphate (ATP), 0.2 mM EGTA, 50 μL of whole body homogenate (equivalent to 4.22 μg protein), and 1 μL of the test compounds in Tris-maleate buffer containing 0.2% ethanol. After incubation for 5 min at 20°C, the reaction was initiated by the addition of ATP. Incubation was carried out at 30°C for 3 min in a shaking water bath. The reaction was terminated by boiling for 2 min, and then the assay tube was cooled and centrifuged for 10 min at 8000 g. The 50 μL aliquots of the supernatant were assayed for cAMP level.
The polystyrene microplates (1 strip of 8 wells) coated with a goat anti-mouse polyclonal antibody were used. Fifty microliters of primary antibody (mouse monoclonal antibody) solution was added to each well except the blank wells (or the nonspecific binding (NSB) wells). The wells covered with the adhesive strip were incubated for 1 h at 25°C in a shaking incubator (480 rpm), followed by four times washing steps, each with 400 μL of wash buffer. The 50 μL of the test samples for cAMP determination and cAMP standard were added to wells. Control, blank (NSB), and zero standard wells were added with 50 μL of the diluent RD5-55 buffer. The 50 μL of cAMP conjugate (horseradish peroxidase-labeled cAMP) was then added to wells. The plate covered with a new adhesive strip was incubated for 2 h at 25°C on the shaker, followed by the four times washing steps. Then, 200 μL of substrate solution (equal volume of stabilized hydrogen peroxide and stabilized chromogen) was added to each well, and the test plate was incubated for 30 min at 25°C on the benchtop in darkness. Finally, the reaction was stopped by adding 100 μL of stop solution (2 N sulfuric acid) to each well. Optical densities at 450 and 540 nm were measured using the VersaMax microplate reader. The readings at 540 nm were subtracted from the readings at 450 nm. The cAMP concentrations were expressed as nmol/μg protein. Results were expressed as mean ± SE of duplicate samples of three independent experiments.

Data set [3] deals with third instar Culex pipiens pallens larvae. The data set is described as follows: direct-contact mortality bioassay. The settings on record: for LC50: Culex pipiens, 24 h, read-out: LC50, mg/L (95% CL). Here is the method: (§1) A direct-contact mortality bioassay was used to evaluate the toxicity of all compounds to third instar larvae from the susceptible and wild mosquito populations. Each compound in acetone (for karanjin) or methanol (for the other compounds) was suspended in distilled water with Triton X-100 (20 μL/L). Groups of 20 mosquito larvae were separately put into paper cups (270 mL) containing each test compound solution (250 mL). The OPs temephos and fenthion served as positive controls and were similarly formulated. Negative controls consisted of the acetone– or methanol–Triton X-100 solution in distilled water. […] Treated and control (acetone– or methanol–Triton X-100 solution only) larvae were held under the same conditions as those used for colony maintenance. […] All treatments were replicated three times using 20 larvae per replicate.
(§2) In separate experiments, the efficacy of the 12 experimental liquid formulations was evaluated, as stated previously. Groups of 20 mosquito larvae were separately put into paper cups containing each test solution. Temephos 200 g/L EC served as a positive control. Negative controls consisted of the ethoxylated castor oil + polyoxyethylene dodecyl mono ether solution in distilled water or water. Mortalities were recorded, as stated previously. All treatments were replicated three times using 20 larvae per replicate.
(§3) Data were corrected for control mortality using Abbott’s formula [36]. The percentages of mortality were transformed to arcsine square-root values for analysis of variance (ANOVA). […] IC50 values and cAMP levels were subjected to ANOVA. The Bonferroni multiple-comparison method was used for comparison of means. Means ± SE of untransformed data are reported. Concentration–mortality data were subjected to probit analysis.

Data set [4] relates to third instar Aedes aegypti larvae. The data set is described as follows: direct-contact mortality bioassay. The settings on record: for LC50: Aedes aegypti, 24 h, read-out: LC50, mg/L (95% CL). On the procedure: as §1, §2, §3
In data set [5] the test system is third instar larvae from wild Aedes albopictus. The data set is described as follows: direct-contact mortality bioassay. The settings on record: for LC50: Aedes albopictus, 24 h, read-out: LC50, mg/L (95% CL). Here is the method: as §1, §2, §3

As to `CCCCOCc1ccc(O)cc1` [4-butoxymethylphenol], the LC50 in data set [1] (phenol) was 0.05 µg/mL (≈ 0.277 µM).
With `CCCCCCCCCCCCCCCCCCCC(=O)O` [Arachidic acid, arachidic acid], in data set [2], the “cAMP level compared with that induced by octopamine” value is recorded as “significantly higher than that induced by octopamine”.
For the compound `CCCCCCCCCCCCCCCCCCCCCC(=O)O` [Behenic acid, behenic acid], the LC50 in data set [3] was determined as 68.8 mg/L (≈ 202 µM); in data set [4], 86.8 mg/L (≈ 255 µM); in data set [5], 105 mg/L (≈ 309 µM). Also, the “cAMP level compared with that induced by octopamine” value in data set [2] was “significantly higher than that induced by octopamine”.
For the compound `CCCCCCCC/C=C/CCCCCCCC(=O)O` [Elaidic acid, elaidic acid], the values for the LC50 in data set [3], in data set [4] and in data set [5] were 28.2 mg/L (≈ 99.9 µM), 32.2 mg/L (≈ 114 µM) and 66.3 mg/L (≈ 235 µM), respectively. Further, in data set [2], the “cAMP level compared with that induced by octopamine” value is recorded as “significantly higher than that induced by octopamine”.
Take `CCCCC/C=C\C/C=C\CCCCCCCC(=O)OCC` [Ethyl linoleate, ethyl linoleate]: the LC50 in data set [3], in data set [4] and in data set [5] was above 200 mg/L throughout.
Turning to `CCCCCCCC/C=C\CCCCCCCC(=O)OCC` [Ethyl oleate, ethyl oleate], the LC50 in data set [3], in data set [4] and in data set [5] was above 200 mg/L in each case.
In the case of `COP(=S)(OC)Oc1ccc(SC)c(C)c1` [Fenthion, fenthion, reference compound], the LC50 was 0.027 mg/L (≈ 0.097 µM) in data set [3], 0.022 mg/L (≈ 0.079 µM) in data set [4] and 0.033 mg/L (≈ 0.119 µM) in data set [5].
For `COc1c(-c2ccccc2)oc2c3c(ccc2c1=O)OC(C)(C)C=C3` [Karanjachromene (2), karanjachromene], the LC50 turned out to be 18.7 mg/L (≈ 56 µM) in data set [3], 20.6 mg/L (≈ 61.5 µM) in data set [4] and 53 mg/L (≈ 158 µM) in data set [5].
As for `COc1c(-c2ccccc2)oc2c(ccc3occc32)c1=O` [Karanjin (1), karanjin], the LC50 in data set [3] was determined as 14.6 mg/L (≈ 50 µM); in data set [4], 16.1 mg/L (≈ 55.2 µM); in data set [5] it was 35.3 mg/L (≈ 121 µM).
As for `CCCCC/C=C\C/C=C\CCCCCCCC(=O)O` [Linoleic acid, linoleic acid], the values for the LC50 in data set [3], in data set [4] and in data set [5] were 20.1 mg/L (≈ 71.8 µM), 21.3 mg/L (≈ 75.9 µM) and 68.9 mg/L (≈ 246 µM), respectively. Besides, the “cAMP level compared with that induced by octopamine” value in data set [2] is on record as “significantly higher than that induced by octopamine”.
For the compound `CC/C=C\C/C=C\C/C=C\CCCCCCCC(=O)O` [Linolenic acid, linolenic acid], the LC50 in data set [3] is 21.3 mg/L (≈ 76.6 µM); in data set [4], 22.6 mg/L (≈ 81.1 µM); in data set [5], 71.3 mg/L (≈ 256 µM). For the same compound, the “cAMP level compared with that induced by octopamine” value in data set [2] is “significantly higher than that induced by octopamine”.
For the compound `CCCCC/C=C\C/C=C\CCCCCCCC(=O)OC` [Methyl linoleate, methyl linoleate], the LC50 in data set [3], in data set [4] and in data set [5] was above 200 mg/L throughout.
With `CCCCCCCC/C=C\CCCCCCCC(=O)OC` [Methyl oleate, methyl oleate], the LC50 in data set [3], in data set [4] and in data set [5] was above 200 mg/L throughout.
Take `CCCCCCCC/C=C\CCCCCCCC(=O)O` [Oleic acid (3), oleic acid]: the LC50 in data set [3] worked out at 18.1 mg/L (≈ 64 µM); in data set [4] it was 18.4 mg/L (≈ 65.3 µM); in data set [5] it was 18.8 mg/L (≈ 66.5 µM). Further, the “cAMP level compared with that induced by octopamine” value in data set [2] is “significantly lower than that induced by octopamine”.
With `O=c1c2c(oc3c1ccc1occc13)COc1ccccc1-2` [Pongarotene (6), pongarotene], the LC50 in data set [3] turned out to be 25.5 mg/L (≈ 87.9 µM); in data set [4], 37.6 mg/L (≈ 130 µM); in data set [5], 65 mg/L (≈ 224 µM).
Taken in the same sequence, the figures for `CCCCCCCCCCCCCCCCCC(=O)O` [Stearic acid, stearic acid] were above 200 mg/L, above 200 mg/L and above 200 mg/L.
On to `COP(=S)(OC)Oc1ccc(Sc2ccc(OP(=S)(OC)OC)cc2)cc1` [Temephos, temephos, reference compound], for which the LC50 was 0.013 mg/L (≈ 0.0279 µM) in data set [3], 0.015 mg/L (≈ 0.0322 µM) in data set [4] and 0.01 mg/L (≈ 0.0214 µM) in data set [5].
On to `CC#CC#CC(=O)c1ccccc1` [capillin], for which, in data set [1] (polyacetylene), the LC50 was below 10 µg/mL.
Take `C/C=C/c1ccc2c(c1)[C@@H](C)[C@H](c1ccc(O)cc1)O2` [conocarpan]: in data set [1] (neolignans), the LC50 was below 10 µg/mL.
Take `N#C[C@@H](O[C@@H]1O[C@H](CO)[C@@H](O)[C@H](O)[C@H]1O)c1ccc(O)cc1` [dhurrin]: in data set [1] (cyanogenic glycoside), the LC50 is 1.12 µg/mL (≈ 3.6 µM).
`CCOC(=O)/C=C/c1ccccc1` [ethyl cinnamate]: the LC50 in data set [1] (phenylpropanoids) was 12.3 µg/mL (≈ 69.8 µM).
For the compound `CCOC(=O)C=Cc1ccc(OC)cc1` [ethyl p-methoxycinnamate], the LC50 in data set [1] (phenylpropanoids) is 20.7 µg/mL (≈ 100 µM).
Turning to `C/C=C/c1ccc2oc(-c3ccc(O)cc3)c(C)c2c1` [eupomatenoid-6], in data set [1] (neolignans), the LC50 was below 10 µg/mL.
`C=C[C@@H](O)C#CC#C[C@@H](O)/C=C\CCCCCCC` [falcarindiol]: the LC50 in data set [1] (acetylenic alcohols) is 6.51 µg/mL (≈ 25 µM).
As for `C=C[C@H](O)C#CC#CC/C=C\CCCCCCC` [falcarinol], the LC50 in data set [1] (acetylenic alcohols) is 3.49 µg/mL (≈ 14.3 µM).
In the case of `O=C1C=CC[C@H](/C=C/c2ccccc2)O1` [goniothalmin], the LC50 in data set [1] (lactone) was 0.87 to 25.95 µg/mL.
Turning to `CC(C)=CCOc1c2occc2cc2ccc(=O)oc12` [imperatorin], the LC50 in data set [1] (coumarins) was 2.88 µg/mL (≈ 10.7 µM).
`C=C1CC[C@H]2C(C)(C)CCC[C@]2(C)[C@H]1C/C=C(/C=O)CC=O` [labda-8(17)-diene-15,16-dial]: in data set [1] (terpenoid), the LC50 is below 10 µg/mL.
As to `COc1ccc2ccc(=O)oc2c1CC=C(C)C` [osthole], the LC50 in data set [1] (coumarins) is 3.14 µg/mL (≈ 12.9 µM).
For `COC1=C[C@@H](C)[C@@H]2C[C@H]3OC(=O)C[C@H]4C(C)=C(OC)C(=O)[C@H]([C@@]2(C)C1=O)[C@@]34C` [quassin], the LC50 in data set [1] (terpenoid) was 6.0 µg/mL (≈ 15.4 µM).
Regarding `C/C=C/c1cc(OC)c(OC)cc1OC` [α-asarone], in data set [1] (phenylpropanoids), the LC50 is 26.99 µg/mL (≈ 130 µM).
On to eupomatenoid-5, for which, in data set [1] (neolignans), the LC50 was below 10 µg/mL.
On to piperonaline, for which the LC50 in data set [1] (alkaloid) is 0.21 to 0.25 µg/mL.
Take pongamol [Pongamol (5)]: the “LC50, mg/L (95% CL)” value in data set [3] (compounds, third instar Culex pipiens pallens larvae, 24 h exposure) is 23.95 (20.68–27.34) mg/L; in data set [4] (compounds, third instar Aedes aegypti larvae, 24 h exposure) it was 25.76 (22.44–29.35) mg/L; in data set [5] (compounds, third instar larvae from wild Aedes albopictus, 24 h exposure), 56.14 (49.50–64.69) mg/L.
